Patent publication US20210228695A1 (REALTA HOLDINGS, LLC, priority 2018, published 2021)
Like-named read-outs stand apart in the source and are kept apart here. Ends that are not written are not given here.

How the values were obtained:
[1] = human, in vivo
Procedure: A patient with chronic active Epstein-Barr virus disease and hemophagocytic lymphohistiocytosis presented with ceftriaxone-induced hemolytic anemia. The patient had been evaluated in the emergency department for fever and possible sepsis after recently receiving chemotherapy. In the emergency department they received a dose of ceftriaxone (50 mg/kg). The patient had received ceftriaxone on three previous occasions with no history of adverse reaction. Within an hour they developed back pain, tachycardia and tachypnea. Over the next three hours they developed worsening distress, failed continuous positive airway pressure and required endotracheal intubation with mechanical ventilation. They also experienced hypotension requiring fluid resuscitation and a continuous epinephrine infusion.
Four hours later, their hemoglobin had decreased to 6.1 g/dL, followed by a point-of-care hemoglobin of 5.1 g/dL. They received four packed red blood cell transfusions (each 10 mL/kg) within 72 hours, after which, their hemoglobin stabilized at their initial baseline (FIG. 1A). […] There were spherocytes on their peripheral blood smear as well as red blood cell aggregation. On admission, one day later, and five days later, their total bilirubin level was 1.5 mg/dL, 10.7 mg/dL, and 23.1 mg/dL respectively, with 90% being conjugated. […]

[2] = patients frequently exposed to ceftriaxone; cited from earlier work
[3] = test system: classical complement pathway; conditions: 0.75 mM PIC1 and ceftriaxone together
Procedure: The CHUHE assay utilizes human serum and human erythrocytes to measure complement-mediated hemolysis for the specific serum and specific erythrocytes that are co-incubated.
The patient's blood and sera were provided as discarded de-identified samples from residual specimens in the Blood Bank. […] Standard veronal complement buffers were utilized.
The modified CHUHE assay was performed as follows. The patient's sera (0.1 ml) was combined with ceftriaxone (10 μg/ml final concentration) in an ice-water bath for 30 minutes to enhance immune complex formation. This solution was then warmed to 24° C. […] Samples were incubated at 37° C. for one hour, with hemolysis stopped by the addition of 2.0 ml of GVBS-EDTA buffer (veronal-buffered saline with 0.1% gelatin and 10 mM EDTA). Erythrocytes were sedimented, and free hemoglobin was measured by spectrophotometry at 412 nm. Two independent experiments (n=2) were performed. Without wishing to be bound by theory, adaptation of the CHUHE hemolytic assay by adding exogenous ceftriaxone to the patient's serum and erythrocytes allowed for evaluation as to whether the hemolysis was ceftriaxone-initiated.

[4] = PIC1 administered to a patient with ceftriaxone-induced hemolysis (Example 2); format: in vivo, human
Procedure: A patient is tested for possible hemolysis as a result of treatment with ceftriaxone. The patient has an erythrocyte hemoglobin level of 6.5 g/dL, a total bilirubin level of 12.4 mg/dL, and an LDH of 16,500. The patient receives packed red blood cell transfusion, and ceftriaxone is discontinued.
Four hours later, the patient has an erythrocyte hemoglobin level of 7.9 g/dL, a total bilirubin level of 8.4 mg/dL, and an LDH of 10,500, all of which show improvement. […] The bilirubin and LDH levels continue to improve. The patient receives additional packed red blood cell transfusions as needed.

| Compound | total bilirubin level [1] [mg/dL] | patients developing anti-ceftriaxone antibodies [2] [%] | hemolysis relative to the no ceftriaxone control [3] | clinical outcome ([4]; 150 mg/kg PIC1, then daily dose for three days, with transfusions as needed) | total bilirubin level ([4]; four hours after 150 mg/kg PIC1, 12.4 mg/dL before) [mg/dL] | erythrocyte hemoglobin level ([4]; four hours after 150 mg/kg PIC1, 6.5 g/dL before) [g/dL] | LDH ([4]; four hours after 150 mg/kg PIC1, 16,500 before) |
| --- | --- | --- | --- | --- | --- | --- | --- |
| CO/N=C(\C(=O)N[C@@H]1C(=O)N2C(C(=O)O)=C(CSc3nc(=O)c(=O)[nH]n3C)CS[C@H]12)c1csc(N)n1 [ceftriaxone, reference compound] | 23.1 | 12.5 | – | – | – | – | – |
| IALILEPICCQERAA-dPEG24 (cysteine pairing not given here) [PIC1] | – | – | returned hemolysis to the level of the no ceftriaxone control | completely recovered from the hemolysis | 8.4 | 7.9 | 10,500 |
